How the values were obtained:
[1] = test system: C57BL/6J blastocysts; test: Developmental efficiency of frozen embryo transfer (Treatment Example 18); assay type: cell-based, mouse; conditions: C57BL/6J freeze-thawed blastocysts, 38 embryos transferred
Experimental: Specifically, in the blastocysts of C57BL/6J mice, a freeze-thaw manipulation was performed by using the above-mentioned temporary treatment medium by using Y-27632 or the normal medium as control. Further, an average of 20 blastocysts per recipient (MCH mouse) was transplanted into the uterus. The newborn was delivered by Caesarean section (CS), and the number of implantation marks and the number of newborns were confirmed. Weaning mice were suckled by foster parents, the number of weaning mice was confirmed, and the weaning survival rate was calculated. In addition, the embryo medium was used based on the mWM medium.

[2] = test system: early embryos of the inbred mouse B6J strain; test: Recovery of inbred mouse early embryos frozen and thawed multiple times (Treatment Example 15); assay type: cell-based; conditions: frozen TWICE
Description: Then, in the same manner as in Treatment Example 9 according to Example 1, it was investigated whether or not the early embryos of the inbred mouse B6J strain, not the normal mice, could recover after frozen and thawed at multiple times.

[3] = test system: Early embryos of the heterologous inbred SPR2 mouse; test: ES cell establishment from electroporated early embryos (Treatment Example 4); assay type: cell-based, Mus spretus; conditions: SPR2 early embryos cultured in Y-27632 medium, then electroporated
Experimental: 1. Up to 3 hours before TAKE, Y-27632-added mWM medium (Y-27632 final concentration 10 μM, an example of the “temporary treatment medium” of this example), Y-27632-free mWM medium (an example of “normal medium” of this example) were dropped into 35 mm Petri dishes by 5 drops, respectively, to prepare drops covered with paraffin oil.
2. Two-cell stage embryos were collected from the drops or thawed, placed in Y-27632-added mWM medium, and cultured for about 30 minutes to 1 hour (temporary treatment).
3. After that, TAKE was performed.
4. After TAKE, the embryos were placed in Y-27632-added mWM medium and cultured for about 30 minutes to 1 hour (temporary treatment). Then, the embryos were placed in Y-27632-free mWM medium and cultured at 37° C. under 5% CO2 and 5% O2 conditions until transplantation.
5. Then, if necessary, the culture was continued in the Y-27632-free mWM medium to establish ES cells.
When Mus caroli ES cells were knocked out of the Tyr gene by genome editing and a part of them was analyzed, it was shown that NHEJ occurred and heterologous mouse ES cells were established.

[4] = test system: inbred rat F344 embryos; test: Development to blastocyst after two electroporations (Treatment Example 5); assay type: cell-based; conditions: treated before and after electroporation
Experimental: 1. At least 3 hours before TAKE, 5 drops of Y-27632-added KSOM AA medium (Y-27632 final concentration 10 μM, an example of the “temporary treatment medium” of this example) were placed on a 35 mm Petri dish and drops covered with paraffin oil.
2. Pronuclear stage embryos were collected, placed in Y-27632-added KSOM AA medium, and cultured for about 30 minutes to 1 hour (temporary treatment).
3. After that, the first TAKE was performed.
4. After TAKE, the embryos were placed in Y-27632-added KSOM AA medium and cultured under 37° C., 5% CO2, and 5% O2 conditions for 30 minutes and more and up to 12 hours (temporary treatment).
5. Then, they were placed in Y-27632-free KSOM AA medium (an example of the “normal medium” of this example), and cultured under 37° C., 5% CO2, and 5% O2 conditions until the second TAKE.
6. The next day, the embryos that had become two cells were separated, and about 20 to 22 hours after egg collection, they were placed in Y-27632-added KSOM AA medium again and cultured for about 30 minutes to 1 hour (temporary treatment).
7. After that, the second TAKE was performed.
8. […]
In these figures, the development rate of the two-cell stage was calculated as the ratio of the two-cell stage embryo to the pronuclear stage embryo, and the development rate of the blastocyst stage was calculated as the ratio of the blastocyst stage to the two-cell stage embryo.

[5] = test system: NOD-scid mouse embryos; test: Bbox1 and IL2rg DKO screening in NOD-scid mice (Treatment Example 14); assay type: cell-based
Experimental: Then, in the same manner as in Treatment Example 7 of Example 1, in the NOD-scid strain, which is another strain of a severe combined immunodeficiency mouse, genome editing of multiple genes was performed, and individuals were produced. Here, individuals in which both the mBBOX1 and mIL2RG genes of NOD-scid mice were knocked out were prepared by the same treatment method as the above-mentioned treatment example used for BALB/c nude.

[6] = test system: unfrozen pronuclear stage embryo (1 cell) of the inbred rat F344; test: Genome-edited individuals by unfrozen 1-cell TAKE of F344 (Treatment Example 16); assay type: cell-based; conditions: F344 unfrozen 1 cell; for NUMBER OF NEWBORNS: 2× gRNA, 14 pulses, 20% reduction rate; for KO rate (Large deletion) (%): KO individuals / newborns analyzed
Description: Next, in the same manner as in Treatment Example 1 according to Example 1, a knock-out by the electroporation method was also produced in an unfrozen pronuclear stage embryo (1 cell) of the inbred rat F344. The conditions at this time were that the gRNA concentration was twice the specified amount, the pulse was 14 times, and the reduction rate was 20%.

[7] = NOD-scid F0, Bbox1 and IL2rg, listed as temporary treatment medium

Compound: C[C@@H](N)[C@H]1CC[C@H](C(=O)Nc2ccncc2)CC1 [Y-27632, trans-4-[(1R)-1-Aminoethyl]-N-4-pyrid inylcyclohexanecarboxamide]
- Implantation mark [1]: 13
- Weaning (number of weaning mice) [1]: 10
- Weaning survival rate [1]: 100%
- Pups (CS) ([1]; Caesarean section): 10
- NUMBER OF RECOVERIES [2]: 24/26
- recoveries % [2]: 92%
- ES cells established [3]: at a high rate
- 2-cell stage embryos developed until the blastocyst stage (proportion) [4]: 74 of 103
- embryos developed to the blastocyst (%) ([4]; ratio of blastocysts to 2-cell embryos): 71.8%
- individuals mutated at Bbox1 Ex3 (chr. 2) (proportion) ([5]; NOD-scid F0): #U: unknown mutation (4/9) (4/9)
- individuals mutated at Il2rg (chr. X) Ex2 (proportion) ([5]; NOD-scid F0): #U: unknown mutation (4/9) (4/9)
- individuals mutated at Il2rg (chr. X) Ex3 (proportion) ([5]; NOD-scid F0): #U: unknown mutation (4/9) (4/9)
- individuals with mutations in one of the two genes (%) [5, 7]: 66.7%
- individuals with mutations in one of the two genes (proportion) [5, 7]: 6 out of 9 and (6/9)
- NUMBER OF NEWBORNS ([6]; 25 TAKE embryos, 1 recipient): 4
- Number of KO individuals (large deletion) ([6]; 25 TAKE embryos, 1 recipient, 4 newborns analyzed): 0
- KO rate (Large deletion) (%) ([6]; 25 TAKE embryos): (0%)
- NUMBER OF NEWBORNS ([6]; 75 TAKE embryos, 3 recipients): 16
- Number of KO individuals (large deletion) ([6]; 75 TAKE embryos, 3 recipients, 13 newborns analyzed): 7
- KO rate (Large deletion) (%) ([6]; 75 TAKE embryos): (53.8%)
